Results published in patent publication US6388089B1, “Brassinosteroid biosynthesis inhibitors” (Riken, priority 1998, dated 2002).

Experiments:
[1] = test system: rice (Oryza sativa cv. Koshihikari); test: rice growth bioassay (rice elongation test); type: in vivo; conditions: for growth of the rice plant (length of shoots): in vivo
Description: Further, rice growth bioassay was performed as follows. Seeds of rice (Oryza sativa cv. Koshihikari) were immersed in tap water for 2 hours, and then 10 seeds were immersed in 2 ml of 10 mM sodium acetate buffer (pH 5.4) containing 10 mM CaCl2 filled in a sterilized 15-ml test tube in the presence or absence of a test compound. The plants were grown in a growth chamber for 16 hours under a light condition (240 mE/m2s) and for 8 hours under a dark condition (25° C.). The plants were collected and the length of shoots was measured.

[2] = test system: dwarfed rice plant (Oryza sativa cv. Tan-ginbozu); test: rice leaf lamina inclination bioassay, explantation method; type: in vivo; conditions: RMB-61 1 μg/plant; FIG. 1
[3] = test system: Arabidopsis (wild-type, Colombia); test: Arabidopsis germination assay; type: in vivo
Description: Arabidopsis mutants such as det2 (de-etiolation) and cpd (constitutive photomorphogenesis and dwarfism) show strong dwarfism manifested as curled leaves in deep green. Although this phenotype disappears when brassinolide is administered externally, other plant hormones such as IAA and gibberellin are ineffective. Based on these findings, the compound of the present invention (Compound 1 obtained in Example 1) was used in Arabidopsis (wild-type, Colombia) germination assay. Screening was performed under a light condition with criteria whether or not the compound generates abnormality 1) which is morphologically similar to mutants in the brassinosteroid biosynthesis and 2) which disappears when brassinolide is administered. It was also examined whether or not the morphological change induced by the test compound was restored to the morphology of wild-type by addition of braassinolide under a dark condition.
(§1) The Arabidopsis germination assay was performed as follows. Seeds of wild-type and det were treated at a low temperature (2° C.) for 2 days, and the surfaces were sterilized with 1% NaOCl solution for 2 minutes and washed seven times with sterilized distilled water. The seeds were sown on 1% agar solid medium containing 0.5×Murashige and Skoog (1962) salt and 1.5% (w/v) sucrose in a plastic plate in the presence or absence of the test compound. The wild-type plant and det2 plant were grown in a growth chamber for 16 hours under a light condition (240 mE/m2s) and for 8 hours under a dark condition (25° C.). For the screening experiment, the plate was sealed with Parafilm (American National Can Co., Ltd., Chicago, Ill., USA). For the restoration experiment that required a longer experimental period, the seeds were sown on 1% agar solid medium containing 0.5×Murashige and Skoog (1962) salt and 1.5% (w/v) sucrose in Agripot (Kirin Brewery Co., Ltd.). The plants were grown in a growth chamber for 16 hours under a light condition (240 mE/m2s) and for 8 hours under a dark condition (28° C.).

[4] = test system: dwarfed rice plant (Oryza sativa cv. Tan-ginbozu); test: rice leaf lamina inclination bioassay, whole plant method; type: in vivo
Description: In the figure, “Angle” indicates an inclination angle; and the results are indicated with “Cont” for control (no treatment); “CT” for cathasterone (100 ng); “TE” for teasterone (100 ng); and “BL” for brassinolide (0.1 ng) wherein each dose per plant is shown. Generally, the biological activity of brassinosteroids is often evaluated by the in vitro rice leaf lamina inclination bioassay (explantation method: Wada et al., Plant Cell Physiol., 22, pp.323-325, 1981; Takatsuto, J. Chromat. A., 658, pp.3-15, 1994) which is highly sensitive and reliable. However, this conventional method is not suitable for analyzing the mechanism of action of brassinosteroid biosynthesis inhibitors. Recently, Fujioka et al. reported a method (whole plant method) in which the rice leaf lamina inclination bioassay is improved as an […] system. This method reflects the actual biosynthesis process of brassinosteroids by administration of various precursors of brassinolide. The inhibitory action of the compound of the present invention against the brassinolide biosynthesis was evaluated by the explantation method and the whole plant method. The rice leaf lamina inclination bioassay was performed essentially according to the procedure reported by Fujioka et al. as mentioned above by using a dwarfed rice plant (Oryza sativa cv. Tan-ginbozu). Seeds were immersed in water for 2 days at 28° C., and germinated seeds were subjected to selection of those having a uniform coleoptile length (about 1 to 2 mm). Five germinated seeds were planted on 30 ml of 1% agar medium contained in a glass jar (inner diameter: 26 mm×60 mm), and incubated under the aforementioned conditions for 3 days. Each test compound for the bioassay was dissolved in ethanol and placed on a lamina in an amount of […] by using a microsyringe. After the plants were incubated under the same growth conditions for 2 days, the external angle between the leaf lamina and its sheath was measured by using an annular protractor. Thirty plants in total (6 jars) were used for each treatment.

Arabidopsis = Arabidopsis assay with addition of brassinolide precursors; type: in vivo
Description: as §1
In order to confirm the action of RMB-61 also in the Arabidopsis assay, the seeds were grown with addition of the aforementioned brassinolide precursors, and recovery of the growth retardation caused by the RMB-61 treatment was observed. […] If RMB-61 is a specific inhibitor against the oxidation of cathasterone, it is expected that the morphological traits of the treated plants have similarities to the phenotypes of the mutants such as cpd (Szekeres et al., Cell, 85, pp.171-182, 1996). It is further expected that the action of RMB-61 will disappear when typhasterol, castasterone or brassinolide is administered, and in addition, the cpd phenotypes caused by brassinosteroids will disappear.

vessel elements = conditions: cited from earlier work
endogenous castasterone = conditions: side effect; cited from earlier work

Compound	growth of the rice plant (length of shoots) [1]	effect on the gibberellin treatment ([1]; with gibberellin)	inhibition of the action of brassinolide (inclination angle) [2]	induction of dwarfism ([3]; at 10^−6 M, among the test compounds)	concentration at which shapes of the plants significantly resemble det2 mutant ([3]; dose-effect test)	dwarfism / morphological change on simultaneous administration of brassinolide ([3]; with brassinolide)	effect on the inclination action by teasterone, typhasterol and castasterone ([4]; RMB-61 5 μg/plant, FIG. 2)	effect on the action of cathasterone (inclination angle) ([4]; RMB-61 5 μg/plant, cathasterone 100 ng, FIG. 2)	response of the rice plant to brassinosteroid after adding teasterone or brassinolide ([4]; rice plant in which the effect of cathasterone was negated by RMB-61)	greening effect on administration of brassinosteroids (Arabidopsis; brassinosteroids except for cathasterone)	greening of plants (Arabidopsis; under weak light)	growth retardation in the presence of cathasterone (Arabidopsis; with cathasterone)	action of RMB-61 (growth retardation) in presence of brassinosteroids (Arabidopsis; with teasterone, 3-deoxoteasterone, typhasterol, castasterone or brassinolide)	differentiation of vessel elements induced by brassinolide (vessel elements)	amount of endogenous castasterone (endogenous castasterone)
CC(O)(c1ccccc1)C(Cc1ccc(Cl)cc1)n1cncn1 (centres unmarked) [Compound 1, 4-(4-chlorophenyl)-2-phenyl-3-(1,2,4-triazoyl)butan-2-ol]	no effect	completely failed to effect the gibberellin treatment	absolutely no inhibition	most potent induction of dwarfism	≥ 10^−5 M	negated	failed to offset	inhibited the action of cathasterone	restored	eliminated	promoted greening	maintained	strongly inhibited the action of RMB-61	–	–
CC(C)(C)C(O)/C(=C\c1ccc(Cl)cc1)n1cncn1 (centres unmarked) [Uniconazol]	strong growth retardation action	–	–	–	–	–	–	–	–	–	–	–	–	inhibits differentiation of vessel elements	slight reduction
CC(C)(C)[C@@H](O)[C@@H](Cc1ccc(Cl)cc1)n1cncn1 [paclobutrazol, reference compound]	elongation retardation action	–	–	–	–	–	–	–	–	–	–	–	–	–	–
